Source: PubChem BioAssay (NCI)
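Method: 48-hour compound exposure of cells in 96-well plates, five concentrations, linear interpolation of endpoints. TGI: concentration producing complete growth inhibition.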

Experiments:
Experiment in all cases: DTP human tumour cell line panel, 48 h
[1] = tested on: KM12 colon
[2] = tested on: BT-549 breast
[3] = tested on: SN12C renal
[4] = tested on: CAKI-1 renal
[5] = tested on: TK-10 renal
[6] = tested on: K-562 leukemia
[7] = tested on: OVCAR-3 ovarian
[8] = tested on: MDA-N
[9] = tested on: SF-268 CNS
[10] = tested on: MALME-3M melanoma
[11] = tested on: SK-OV-3 ovarian
[12] = tested on: NCI-H522 lung
[13] = tested on: MOLT-4 leukemia
[14] = tested on: SW-620 colon
[15] = tested on: EKVX NSCLC
[16] = tested on: U251 CNS
[17] = tested on: HOP-62 NSCLC
[18] = tested on: COLO 205 colon
[19] = tested on: SF-295 CNS
[20] = tested on: LOX IMVI melanoma
[21] = tested on: SNB-75 CNS
[22] = tested on: HCT-116 colon
[23] = tested on: SK-MEL-28 melanoma
[24] = tested on: IGROV1 ovarian
[25] = tested on: SK-MEL-5 melanoma
[26] = tested on: HT29 colon
[27] = tested on: SNB-19 CNS
[28] = tested on: UACC-257 melanoma
[29] = tested on: MDA-MB-231 breast
[30] = tested on: OVCAR-4 ovarian
[31] = tested on: NCI-H23 lung
[32] = tested on: UACC-62 melanoma
[33] = tested on: PC-3 prostate
[34] = tested on: UO-31 renal
[35] = tested on: OVCAR-8 ovarian
[36] = tested on: CCRF-CEM leukemia
[37] = tested on: HCT-15 colon
[38] = tested on: A549 NSCLC
[39] = tested on: HS 578T breast
[40] = tested on: NCI-H226 lung
[41] = tested on: MCF7 breast
[42] = tested on: M14 melanoma
[43] = tested on: NCI/ADR-RES ovarian
[44] = tested on: RPMI-8226 leukemia
[45] = tested on: OVCAR-5 ovarian
[46] = tested on: HOP-92 NSCLC
[47] = tested on: RXF 393 renal
[48] = tested on: T-47D breast
[49] = tested on: MDA-MB-435
[50] = tested on: SF-539 CNS
[51] = tested on: DU-145 prostate
[52] = tested on: SK-MEL-2 melanoma
[53] = tested on: 786-0 renal
[54] = tested on: NCI-H460 lung
[55] = tested on: A498 renal
[56] = tested on: HCC-2998 colon
[57] = tested on: SR leukemia
[58] = tested on: HL-60(TB) leukemia
[59] = tested on: ACHN renal

O=C1c2cccnc2-c2nccc3c2c1nc1ccccc13
TGI [1]: 1030 nM
TGI [2]: 618 nM
TGI [3]: 1030 nM
TGI [4]: 467 nM
TGI [5]: 2840 nM
TGI [6]: 667 nM
TGI [7]: 98.7 nM
TGI [8]: 359 nM
TGI [9]: 834 nM
TGI [10]: 603 nM
TGI [11]: 1190 nM
TGI [12]: 281 nM
TGI [13]: 3200 nM
TGI [14]: 237 nM
TGI [15]: 3210 nM
TGI [16]: 703 nM
TGI [17]: 514 nM
TGI [18]: 4770 nM
TGI [19]: 194 nM
TGI [20]: 207 nM
TGI [21]: 1760 nM
TGI [22]: 180 nM
TGI [23]: 1470 nM
TGI [24]: 1330 nM
TGI [25]: 168 nM
TGI [26]: 2500 nM
TGI [27]: 1280 nM
TGI [28]: 1060 nM
TGI [29]: 674 nM
TGI [30]: 3560 nM
TGI [31]: 518 nM
TGI [32]: 541 nM
TGI [33]: 1580 nM
TGI [34]: 634 nM
TGI [35]: 1610 nM
TGI [36]: 10200 nM
TGI [37]: 202 nM
TGI [38]: 739 nM
TGI [39]: 2260 nM
TGI [40]: 738 nM
TGI [41]: 85.8 nM
TGI [42]: 269 nM
TGI [43]: 673 nM
TGI [44]: 1170 nM
TGI [45]: 1650 nM
TGI [46]: 2540 nM
TGI [47]: 459 nM
TGI [48]: 2080 nM
TGI [49]: 444 nM
TGI [50]: 544 nM
TGI [51]: 962 nM
TGI [52]: 525 nM
TGI [53]: 2210 nM
TGI [54]: 606 nM
TGI [55]: 1030 nM

CC(NNC(=O)c1ccncc1)c1cccc(C(F)(F)F)c1 (stereo unspecified)
TGI [1]: > 100000 nM
TGI [56]: > 100000 nM
TGI [3]: > 100000 nM
TGI [4]: > 100000 nM
TGI [5]: > 100000 nM
TGI [6]: > 100000 nM
TGI [8]: > 100000 nM
TGI [9]: > 100000 nM
TGI [10]: > 100000 nM
TGI [11]: > 100000 nM
TGI [12]: > 100000 nM
TGI [13]: > 100000 nM
TGI [14]: > 100000 nM
TGI [15]: > 100000 nM
TGI [16]: > 100000 nM
TGI [17]: > 100000 nM
TGI [18]: > 100000 nM
TGI [19]: > 100000 nM
TGI [20]: > 100000 nM
TGI [21]: > 100000 nM
TGI [22]: > 100000 nM
TGI [23]: > 100000 nM
TGI [24]: > 100000 nM
TGI [25]: > 100000 nM
TGI [26]: > 100000 nM
TGI [28]: > 100000 nM
TGI [57]: > 100000 nM
TGI [58]: > 100000 nM
TGI [29]: > 100000 nM
TGI [30]: > 100000 nM
TGI [31]: > 100000 nM
TGI [32]: > 100000 nM
TGI [33]: > 100000 nM
TGI [34]: > 100000 nM
TGI [35]: > 100000 nM
TGI [36]: > 100000 nM
TGI [37]: > 100000 nM
TGI [38]: > 100000 nM
TGI [39]: > 100000 nM
TGI [40]: > 100000 nM
TGI [41]: > 100000 nM
TGI [42]: > 100000 nM
TGI [43]: > 100000 nM
TGI [44]: > 100000 nM
TGI [45]: > 100000 nM
TGI [46]: > 100000 nM
TGI [47]: > 100000 nM
TGI [48]: > 100000 nM
TGI [49]: > 100000 nM
TGI [59]: > 100000 nM
TGI [50]: > 100000 nM
TGI [51]: > 100000 nM
TGI [52]: > 100000 nM
TGI [53]: > 100000 nM
TGI [54]: > 100000 nM
TGI [55]: > 100000 nM
